{
  "source": "patent US5843887A",
  "about": "“Compositions for delivery of polypeptides, and methods” (Allied Medical Research Associates, priority 1994, dated 1998)",
  "key": {"[1]": {"conditions": "doses of 100 to 500 μg, as in pernicious anemia; cited from earlier work"}, "serum glucose": {"tested_on": "serum glucose", "assay": "IF and insulin injected into the sutured duodenal cavity of mice, serum glucose", "format": "in vivo", "conditions": "50 mg IF and 4 I.U. insulin, decreases up until death, depending on the dose", "protocol": "10 g IF (dosage of 300 Units per mg; one unit will bind one nanogram of vitamin B12) was added to 1 liter of 0.02M phosphate buffered solution and stirred up to 37° C. […] The solution (with a prefered pH of about 6) was stirred at a temperature of 37° C. for 24 hours. The product was then dialysed at 4° C. and dehydrated by lyophilization."}, "[2]": {"conditions": "pH of 8, in the presence of trypsin; cited from earlier work"}, "blood glucose level": {"tested_on": "blood glucose level", "assay": "oral administration of IF and/or porcine insulin to mice, blood glucose level", "format": "in vivo", "conditions": "administered orally (summary statement)", "protocol": "The IF was substantially free of R-protein and prepared as in Example 1. […] Blood glucose level was measured with a blood glucose meter standard model Tracer (Boehringer) and produced the following results."}},
  "data": [
    {"substance": "cyanocobalamin", "values": [
      {"measurement": "fraction of dose absorbed (passive absorption)", "setting": "[1]", "result": 1, "unit": "%"}
    ]},
    {"substance": "Insulin alone: human biogenetic insulin (Novo Nordisk) of Example 1, injected alone", "values": [
      {"measurement": "change in serum glucose", "setting": "serum glucose", "result": "did not cause a fall in serum glucose"}
    ]},
    {"substance": "IF: glycoprotein with a molecular weight of 50 kDa, 351 amino acids, binds cobalamin", "values": [
      {"measurement": "affinity for cobalamin relative to that of R protein", "setting": "[2]", "result": 150, "unit": "times"}
    ]},
    {"substance": "insulin", "values": [
      {"measurement": "change in serum glucose after oral administration", "setting": "blood glucose level", "result": "no change in serum glucose"}
    ]}
  ]
}
